# Results published in ChEMBL document CHEMBL5038606 (J Med Chem, 2022).
# Active and inactive are the calls of the source. The calls are words filed in the database; no cut-off is given here.
# Key:
# [1] = Aqueous solubility of the compound at pH 6.5; format: physicochemical; conditions: aqueous medium
# [2] = Fraction unbound in human plasma; format: ADME, cell-free
# [3] = Aqueous solubility of the compound at pH 1.0; format: physicochemical; conditions: aqueous medium
# [4] = Metabolic stability in human liver microsomes assessed as half life; format: ADME, Microsome
# Plasma = test: Anticoagulant activity in human plasma assessed as activated partial thromboplastin time; format: functional
# Homo sapiens [5] = species on record: Homo sapiens; test: Inhibition of Monoamine oxidase (unknown origin) at 16 to 94 ug/ml; conditions: dose 16-94 µg/ml
# [6] = Fraction unbound in Sprague-Dawley rat plasma; format: ADME, cell-free
# [7] = Clearance in Sprague-Dawley rat at 1.04 mg/kg, po or 0.52 mg/kg, iv; format: ADME, organism-based; conditions: in vivo
# [8] = biological target: Urokinase-type plasminogen activator (Homo sapiens, UniProt P00749); test: Binding affinity to human urokinase assessed as inhibition constant using L-Pyroglutamyl-glycyl-L-arginine p-Nitroaniline as substrate upto 120 mins by spectrophotometric analysis
# Kallikrein-1 = Kallikrein-1 (Homo sapiens, UniProt P06870); test: Binding affinity to human tissue kallikrein-1 assessed as inhibition constant using H-D-Valyl-L-leucyl-L-arginine 7-amino-4-trifluoromethylcoumarin as substrate measured upto 120 mins by spectrofluorometric analysis; format: tissue-based
# Coagulation factor X = Coagulation factor X (Homo sapiens, UniProt P00742); test: Binding affinity to human coagulation factor 10a assessed as inhibition constant using N-Benzoyl-L-isoleucyl-L-glutamyl-glycyl-Larginine p-Nitroaniline and its gamma glutamyl methyl ester as substrate measured upto 120 mins by spectrophotometric analysis
# Coagulation factor X, sequence (P00742 41-179 limits assumed): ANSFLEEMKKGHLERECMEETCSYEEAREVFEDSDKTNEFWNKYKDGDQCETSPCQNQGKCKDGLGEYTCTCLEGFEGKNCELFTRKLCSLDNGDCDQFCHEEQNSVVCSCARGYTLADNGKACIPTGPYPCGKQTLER
# Coagulation factor X, sequence (P00742 235-488 limits assumed): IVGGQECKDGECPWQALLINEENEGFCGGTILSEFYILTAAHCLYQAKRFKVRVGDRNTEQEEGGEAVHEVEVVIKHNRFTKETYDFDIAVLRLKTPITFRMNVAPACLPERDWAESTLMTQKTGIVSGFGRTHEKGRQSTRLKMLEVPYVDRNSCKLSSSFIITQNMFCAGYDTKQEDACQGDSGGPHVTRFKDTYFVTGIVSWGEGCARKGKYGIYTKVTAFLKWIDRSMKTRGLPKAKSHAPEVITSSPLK
# [9] = biological target: Vitamin K-dependent protein C (Homo sapiens, UniProt P04070); test: Binding affinity to human activated protein C assessed as inhibition constant using L-Pyroglutamyl-L-prolyl-L-arginine p-Nitroaniline as substrate measured upto 120 mins by spectrophotometric analysis
# Vitamin K-dependent protein C, sequence (P04070 43-197 limits assumed): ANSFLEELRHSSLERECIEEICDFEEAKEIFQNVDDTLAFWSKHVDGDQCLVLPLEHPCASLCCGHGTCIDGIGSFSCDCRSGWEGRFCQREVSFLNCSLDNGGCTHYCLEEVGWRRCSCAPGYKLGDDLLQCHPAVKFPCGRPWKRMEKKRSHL
# Vitamin K-dependent protein C, sequence (P04070 212-461 limits assumed): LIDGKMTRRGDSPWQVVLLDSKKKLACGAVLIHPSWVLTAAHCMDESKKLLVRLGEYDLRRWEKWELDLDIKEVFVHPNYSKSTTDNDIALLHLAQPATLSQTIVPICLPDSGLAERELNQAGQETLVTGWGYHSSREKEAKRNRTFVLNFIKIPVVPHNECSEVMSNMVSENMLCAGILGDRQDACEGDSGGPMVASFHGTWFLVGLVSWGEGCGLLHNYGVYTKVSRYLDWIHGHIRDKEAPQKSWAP
# Neutrophil elastase = Neutrophil elastase (Homo sapiens, UniProt P08246); test: Binding affinity to human neutrophil elastase assessed as inhibition constant using Methoxysuccinyl-L-alanyl-L-alanyl-L-prolylL-valine p-Nitroaniline as substrate measured upto 120 mins by spectrophotometric analysis
# [10] = Clearance in cynomolgus monkey at 1.50 mg/kg, po or 0.50 mg/kg, iv; format: ADME, organism-based, Macaca fascicularis; conditions: in vivo, dose 1.5 mg/kg
# [11] = Oral bioavailability in cynomolgus monkey at 1.50 mg/kg; format: ADME, organism-based, Macaca fascicularis; conditions: in vivo, dose 1.5 mg/kg
# Homo sapiens [12] = species on record: Homo sapiens; test: Inhibition of Phosphodiesterase (unknown origin) at 16 to 94 ug/ml; conditions: dose 16-94 µg/ml
# Plasminogen = Plasminogen (Homo sapiens, UniProt P00747); test: Binding affinity to human plasmin assessed as inhibition constant using H-D-Valyl-L-leucyl-L-lysine p-Nitroaniline as substrate measured upto 120 mins by spectrophotometric analysis
# Plasminogen, sequence (P00747 97-580 limits assumed): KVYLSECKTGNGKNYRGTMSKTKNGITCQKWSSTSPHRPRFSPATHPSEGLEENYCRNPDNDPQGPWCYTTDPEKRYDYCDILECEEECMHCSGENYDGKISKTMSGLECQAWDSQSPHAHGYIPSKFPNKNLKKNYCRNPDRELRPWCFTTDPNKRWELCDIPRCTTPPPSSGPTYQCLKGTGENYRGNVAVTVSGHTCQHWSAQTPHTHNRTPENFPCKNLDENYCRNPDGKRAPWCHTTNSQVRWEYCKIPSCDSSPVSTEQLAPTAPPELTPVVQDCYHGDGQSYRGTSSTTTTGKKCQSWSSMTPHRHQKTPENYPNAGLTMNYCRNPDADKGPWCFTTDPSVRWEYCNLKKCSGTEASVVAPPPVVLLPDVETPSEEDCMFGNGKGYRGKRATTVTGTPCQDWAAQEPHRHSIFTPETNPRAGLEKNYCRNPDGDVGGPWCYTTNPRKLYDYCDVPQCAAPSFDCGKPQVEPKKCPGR
# Plasminogen, sequence (P00747 581-810 limits assumed): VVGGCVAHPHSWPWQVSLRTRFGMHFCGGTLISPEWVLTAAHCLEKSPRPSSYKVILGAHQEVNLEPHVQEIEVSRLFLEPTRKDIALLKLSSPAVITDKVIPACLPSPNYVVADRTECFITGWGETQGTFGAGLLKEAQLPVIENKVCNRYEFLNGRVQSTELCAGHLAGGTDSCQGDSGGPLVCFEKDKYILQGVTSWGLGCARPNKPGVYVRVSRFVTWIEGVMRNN
# Chymotrypsin = Chymotrypsin (Homo sapiens, UniProt Q99895+P17538+P40313+Q6GPI1); test: Binding affinity to human chymotrypsin assessed as inhibition constant using 3-Carbomethoxypropionyl-L-arginyl-Lprolyl-L-tyrosine p-Nitroaniline as substrate measured upto 120 mins by spectrophotometric analysis; format: protein assay
# [13] = biological target: Acetylcholinesterase (Homo sapiens) (UniProt P22303); test: Inhibition of acetylcholinesterase (unknown origin) at 16 to 94 ug/ml; conditions: dose 16-94 µg/ml
# Myeloblastin = Myeloblastin (Homo sapiens, UniProt P24158); test: Binding affinity to human neutrophil proteinase 3 assessed as inhibition constant using Methoxysuccinyl-L-alanyl-L-alanyl-L-prolylL-valine p-Nitroaniline as substrate measured upto 120 mins by spectrophotometric analysis
# Myeloblastin, sequence (P24158 whole entry): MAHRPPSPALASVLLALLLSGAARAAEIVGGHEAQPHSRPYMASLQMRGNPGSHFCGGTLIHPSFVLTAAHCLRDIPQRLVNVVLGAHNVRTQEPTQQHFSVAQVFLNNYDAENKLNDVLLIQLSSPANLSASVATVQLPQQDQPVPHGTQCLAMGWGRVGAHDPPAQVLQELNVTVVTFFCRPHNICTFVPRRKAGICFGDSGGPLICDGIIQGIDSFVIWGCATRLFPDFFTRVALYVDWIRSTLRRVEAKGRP
# Cathepsin G = Cathepsin G (Homo sapiens, UniProt P08311); test: Binding affinity to human neutrophil cathepsin G assessed as inhibition constant using Succinyl-L-alanyl-L-alanyl-L-prolyl-Lphenylalanine p-Nitroaniline as substrate measured upto 120 mins by spectrophotometric analysis
# Cathepsin G, sequence (P08311 whole entry): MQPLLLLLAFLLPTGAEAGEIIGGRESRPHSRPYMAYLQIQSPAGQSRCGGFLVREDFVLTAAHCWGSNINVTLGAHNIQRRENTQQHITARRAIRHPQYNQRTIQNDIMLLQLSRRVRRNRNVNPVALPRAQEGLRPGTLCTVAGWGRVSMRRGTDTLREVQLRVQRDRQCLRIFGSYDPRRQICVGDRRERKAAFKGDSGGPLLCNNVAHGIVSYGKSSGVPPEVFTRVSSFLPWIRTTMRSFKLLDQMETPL
# Coagulation factor XII = Coagulation factor XII (Homo sapiens, UniProt P00748); test: Binding affinity to human coagulation factor 12a assessed as inhibition constant using H-D-Cyclohexylalanyl-glycyl-arginyl p-Nitroaniline as substrate measured upto 120 mins by spectrophotometric analysis
# Coagulation factor XII, sequence (P00748 20-372 limits assumed): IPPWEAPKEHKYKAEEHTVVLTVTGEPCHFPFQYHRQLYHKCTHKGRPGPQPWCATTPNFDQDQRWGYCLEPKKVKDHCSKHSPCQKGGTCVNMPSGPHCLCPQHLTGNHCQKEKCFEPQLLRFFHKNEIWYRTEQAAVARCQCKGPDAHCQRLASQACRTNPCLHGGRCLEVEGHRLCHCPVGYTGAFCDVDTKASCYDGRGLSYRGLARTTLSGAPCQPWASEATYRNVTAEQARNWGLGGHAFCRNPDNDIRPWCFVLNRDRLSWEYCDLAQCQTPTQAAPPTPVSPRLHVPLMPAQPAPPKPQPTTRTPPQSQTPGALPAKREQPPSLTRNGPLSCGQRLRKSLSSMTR
# Coagulation factor XII, sequence (P00748 373-615 limits assumed): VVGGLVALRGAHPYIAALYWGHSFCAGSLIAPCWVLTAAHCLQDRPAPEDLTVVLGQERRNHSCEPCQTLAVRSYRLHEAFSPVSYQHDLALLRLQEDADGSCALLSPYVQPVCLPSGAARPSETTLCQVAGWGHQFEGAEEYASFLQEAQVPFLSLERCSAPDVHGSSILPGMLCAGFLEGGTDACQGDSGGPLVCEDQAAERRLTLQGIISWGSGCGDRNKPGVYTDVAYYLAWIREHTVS
# [14] = biological target: Tissue-type plasminogen activator (Homo sapiens, UniProt P00750); test: Binding affinity to human tissue type plasminogen assessed as inhibition constant using Methanesulfonyl-D-Cyclohexylalanyl-glycylarginine p-Nitroaniline as substrate measured upto 120 mins by spectrophotometric analysis
# Tissue-type plasminogen activator, sequence (P00750 whole entry): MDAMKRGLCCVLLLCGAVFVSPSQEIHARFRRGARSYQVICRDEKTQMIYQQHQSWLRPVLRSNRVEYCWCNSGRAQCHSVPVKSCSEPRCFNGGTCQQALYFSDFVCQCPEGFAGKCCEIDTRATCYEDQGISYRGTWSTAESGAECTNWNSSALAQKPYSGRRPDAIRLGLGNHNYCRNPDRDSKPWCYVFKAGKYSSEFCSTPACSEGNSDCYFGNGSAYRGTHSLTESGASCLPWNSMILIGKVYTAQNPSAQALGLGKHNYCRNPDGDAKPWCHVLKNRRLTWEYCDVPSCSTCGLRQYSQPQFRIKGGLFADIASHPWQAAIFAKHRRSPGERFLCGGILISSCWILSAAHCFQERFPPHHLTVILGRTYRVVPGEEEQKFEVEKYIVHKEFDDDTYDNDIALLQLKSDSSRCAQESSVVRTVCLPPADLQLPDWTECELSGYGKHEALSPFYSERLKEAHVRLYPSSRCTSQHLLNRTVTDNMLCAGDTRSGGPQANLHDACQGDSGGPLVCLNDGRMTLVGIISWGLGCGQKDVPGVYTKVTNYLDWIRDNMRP
# [15] = AUC in Sprague-Dawley rat at 1.04 mg/kg, po; format: ADME, organism-based; set-up: dose 1.04 mg/kg; conditions: in vivo
# Coagulation factor VII = Coagulation factor VII (Homo sapiens, UniProt P08709); test: Binding affinity to recombinant human coagulation factor 7a assessed as inhibition constant using N-alpha-Benzyloxycarbonyl-D-arginyl-glycyl-Larginine p-Nitroaniline as substrate measured upto 120 mins by coupled enzyme assay
# Coagulation factor VII, sequence (P08709 61-212 limits assumed): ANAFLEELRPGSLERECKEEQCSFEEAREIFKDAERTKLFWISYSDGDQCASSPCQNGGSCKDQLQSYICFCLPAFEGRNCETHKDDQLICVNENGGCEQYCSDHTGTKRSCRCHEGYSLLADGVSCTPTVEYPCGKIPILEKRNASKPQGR
# Coagulation factor VII, sequence (P08709 213-466 limits assumed): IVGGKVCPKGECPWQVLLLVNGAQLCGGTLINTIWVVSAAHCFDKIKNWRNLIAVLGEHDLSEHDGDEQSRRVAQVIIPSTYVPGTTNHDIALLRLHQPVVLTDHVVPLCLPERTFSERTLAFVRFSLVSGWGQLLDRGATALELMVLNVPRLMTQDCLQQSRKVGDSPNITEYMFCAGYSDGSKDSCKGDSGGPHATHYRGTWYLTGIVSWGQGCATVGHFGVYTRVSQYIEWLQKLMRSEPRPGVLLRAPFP
# [16] = Protein binding in cynomolgus monkey plasma; format: ADME, cell-free, Macaca fascicularis; conditions: read-out: PPB (converted)
# [17] = Half life in cynomolgus monkey at 1.50 mg/kg, po or 0.50 mg/kg, iv; format: ADME, organism-based, Macaca fascicularis; conditions: in vivo, dose 1.5 mg/kg
# [18] = Half life in Sprague-Dawley rat at 1.04 mg/kg, po or 0.52 mg/kg, iv; format: ADME, organism-based; conditions: in vivo
# [19] = Oral bioavailability in Sprague-Dawley rat at 1.04 mg/kg; format: ADME, organism-based; conditions: in vivo
# Trypsin = Trypsin (Homo sapiens, UniProt P07477+P07478+P35030); test: Binding affinity to human trypsin assessed as inhibition constant using N-Benzoyl-L-isoleucyl-L-glutamyl-glycyl-Larginine p-Nitroaniline and its gamma glutamyl methyl ester as substrate measured upto 120 mins by spectrophotometric analysis; format: protein assay
# Chymase = Chymase (Homo sapiens, UniProt P23946); test: Binding affinity to human mast cell chymase assessed as inhibition constant using Succinyl-L-alanyl-L-alanyl-L-prolyl-L phenylalanine p-Nitroaniline as substrate measured upto 120 mins by spectrophotometric analysis
# Coagulation factor IX = Coagulation factor IX (Homo sapiens, UniProt P00740); test: Binding affinity to human coagulation factor 9a assessed as inhibition constant using Methylsulfonyl-D-cyclohexylglycyl-glycylarginine 7-amino-4-methylcoumarin as substrate measured upto 120 mins by spectrofluorometric analysis
# Coagulation factor IX, sequence (P00740 47-191 limits assumed): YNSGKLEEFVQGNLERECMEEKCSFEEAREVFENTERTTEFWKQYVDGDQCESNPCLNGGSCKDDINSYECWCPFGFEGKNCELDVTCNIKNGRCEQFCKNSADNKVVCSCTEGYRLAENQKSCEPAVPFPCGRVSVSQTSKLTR
# Coagulation factor IX, sequence (P00740 227-461 limits assumed): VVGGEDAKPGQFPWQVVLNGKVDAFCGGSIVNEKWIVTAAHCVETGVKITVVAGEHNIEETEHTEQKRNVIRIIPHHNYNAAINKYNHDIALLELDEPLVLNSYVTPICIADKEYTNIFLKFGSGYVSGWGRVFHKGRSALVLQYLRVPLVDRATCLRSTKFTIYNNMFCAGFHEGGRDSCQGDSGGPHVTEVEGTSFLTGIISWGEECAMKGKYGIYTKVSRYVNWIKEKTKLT
# [20] = Volume of distribution at steady state in cynomolgus monkey at 1.50 mg/kg, po or 0.50 mg/kg, iv; format: ADME, organism-based, Macaca fascicularis; conditions: in vivo, dose 1.5 mg/kg, read-out: Vdss
# [21] = Metabolic stability in cynomolgus monkey liver microsomes assessed as half life; format: ADME, Macaca fascicularis, Microsome; set-up: dose or concentration left out as unconfirmed
# [22] = Volume of distribution at steady state in Sprague-Dawley rat at 1.04 mg/kg, po or 0.52 mg/kg, iv; format: ADME, organism-based; conditions: in vivo, read-out: Vdss
# [23] = AUC in cynomolgus monkey at 1.50 mg/kg, po; format: ADME, organism-based, Macaca fascicularis; set-up: dose 1.5 mg/kg; conditions: in vivo, 1.5 mg/kg
# [24] = Metabolic stability in Sprague-Dawley rat liver microsomes assessed as half life; format: ADME, Microsome; set-up: dose or concentration left out as unconfirmed
# [25] = Protein binding in Sprague-Dawley rat plasma assessed as bound fraction; format: ADME, cell-free; set-up: dose or concentration left out as unconfirmed
# Coagulation factor XI = Coagulation factor XI (Homo sapiens, UniProt P03951); test: Binding affinity to human coagulation factor 11a using L-Pyroglutamyl-L-prolyl-L-arginine p-Nitroaniline as substrate assessed as inhibition constant measured upto 120 mins by spectrophotometric analysis
# Coagulation factor XI, sequence (P03951 19-387 limits assumed): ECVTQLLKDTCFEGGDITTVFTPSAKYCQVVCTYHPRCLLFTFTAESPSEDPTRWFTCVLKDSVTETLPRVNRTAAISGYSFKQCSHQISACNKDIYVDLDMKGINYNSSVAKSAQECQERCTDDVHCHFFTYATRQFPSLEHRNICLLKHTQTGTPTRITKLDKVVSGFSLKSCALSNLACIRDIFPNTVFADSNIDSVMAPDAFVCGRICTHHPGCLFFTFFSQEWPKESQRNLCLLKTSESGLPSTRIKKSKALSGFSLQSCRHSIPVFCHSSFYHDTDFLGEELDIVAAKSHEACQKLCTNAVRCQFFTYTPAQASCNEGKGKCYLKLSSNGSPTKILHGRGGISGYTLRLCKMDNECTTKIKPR
# Coagulation factor XI, sequence (P03951 388-625 limits assumed): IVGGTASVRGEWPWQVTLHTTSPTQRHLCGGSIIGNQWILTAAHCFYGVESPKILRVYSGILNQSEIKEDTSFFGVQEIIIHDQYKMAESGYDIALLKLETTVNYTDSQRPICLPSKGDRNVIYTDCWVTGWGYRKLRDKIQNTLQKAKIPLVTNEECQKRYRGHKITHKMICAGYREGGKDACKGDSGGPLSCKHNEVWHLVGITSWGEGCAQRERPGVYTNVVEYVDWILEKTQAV
# Oryctolagus cuniculus = test: Antithrombotic activity in New Zealand White rabbit model of electrically-induced carotid artery thrombosis assessed as inhibition of thrombosis formation by measuring increase in bleeding time administered as iv bolus dose and subsequently administered as iv infusion 30 mins prior to injury; format: functional, organism-based
# [26] = Half life in Sprague-Dawley rat at 1.10 mg/kg, po or 0.55 mg/kg, iv; format: ADME, organism-based; conditions: in vivo, dose 1.1 mg/kg
# [27] = Clearance in Sprague-Dawley rat at 1.10 mg/kg, po or 0.55 mg/kg, iv; format: ADME, organism-based; conditions: in vivo, dose 1.1 mg/kg
# [28] = AUC in Sprague-Dawley rat at 1.10 mg/kg, po; format: ADME, organism-based; set-up: dose 1.1 mg/kg; conditions: in vivo, 1.1 mg/kg
# [29] = Volume of distribution at steady state in Sprague-Dawley rat at 1.10 mg/kg, po or 0.55 mg/kg, iv; format: ADME, organism-based; conditions: in vivo, dose 1.1 mg/kg, read-out: Vdss
# [30] = Oral bioavailability in Sprague-Dawley rat at 1.10 mg/kg; format: ADME, organism-based; conditions: in vivo, dose 1.1 mg/kg
# [31] = Apparent permeability across apical to basolateral side in human Caco2 cells; format: ADME, cell-based; conditions: Caco-2, read-out: permeability
compound,measurement,setting,value
C[C@@H]1CCC[C@H](N2CCC(c3c(F)ccc(Cl)c3F)=CC2=O)c2cc(ccn2)-c2c(cnn2C)NC1=O,solubility,[1],0.15 µg/mL
same,fraction unbound,[2],0.007
same,solubility,[3],3 µg/mL
C[C@@H]1CCC[C@H](N2CCC(c3cc(Cl)ccc3-n3ccnn3)=CC2=O)c2cc(ccn2)-c2c(cnn2C)NC1=O,half-life,[4],1.13 h
same,EC1.5,Plasma,0.36 µM
C[C@@H]1CCC[C@H](n2cnc(-c3cc(Cl)ccc3-n3cc(Cl)nn3)cc2=O)c2cc(ccn2)-c2c(cnn2C(F)F)NC1=O [MILVEXIAN],inhibition,Homo sapiens [5],inactive
same,half-life,[4],> 2 h
same,fraction unbound,[6],0.029
same,solubility,[1],6 µg/mL
same,clearance,[7],7.1 mL/min/kg
same,Ki,[8],3.9 µM
same,Ki,Kallikrein-1,> 11 µM
same,Ki,Coagulation factor X,> 13 µM
same,Ki,[9],> 21 µM
same,Ki,Neutrophil elastase,> 8 µM
same,clearance,[10],10.3 mL/min/kg
same,bioavailability,[11],32%
same,fraction unbound,[2],0.085
same,inhibition,Homo sapiens [12],inactive
same,Ki,Plasminogen,2.65 µM
same,Ki,Chymotrypsin,0.035 µM
same,inhibition,[13],inactive
same,Ki,Myeloblastin,> 12 µM
same,Ki,Cathepsin G,> 20 µM
same,Ki,Coagulation factor XII,> 3 µM
same,Ki,[14],2.3 µM
same,AUC,[15],0.7 µM·h
same,Ki,Coagulation factor VII,1.2 µM
same,fraction unbound,[16],0.109
same,half-life,[17],2.7 h
same,half-life,[18],1.4 h
same,bioavailability,[19],18%
same,Ki,Trypsin,0.72 µM
same,Ki,Chymase,> 13 µM
same,Ki,Coagulation factor IX,> 27 µM
same,Vd,[20],2.2 L/kg
same,half-life,[21],1.38 h
same,Vd,[22],0.9 L/kg
same,EC1.5,Plasma,0.5 µM
same,AUC,[23],1.22 µM·h
same,solubility,[3],8 µg/mL
same,half-life,[24],> 2 h
same,fraction unbound,[25],0.029
C[C@@H]1CCC[C@H](n2cnc(-c3cc(Cl)ccc3-n3cc(Cl)nn3)cc2=O)c2cc(ccn2)-c2c(cnn2C)NC1=O,half-life,[4],1.93 h
same,EC1.5,Plasma,0.3 µM
C[C@@H]1CCC[C@H](N2CCC(c3c(F)ccc(Cl)c3F)=CC2=O)c2cc(ccn2)-c2cn[nH]c2NC1=O,Ki,Coagulation factor XI,0.33 µM
COC(=O)Nc1ccc2c(c1)NC(=O)[C@H](C)CCC[C@H](N1CCC(c3c(F)ccc(Cl)c3F)=CC1=O)c1cc-2ccn1,EC50,Oryctolagus cuniculus,0.375 µM
C[C@@H]1CCC[C@H](N2CCC(c3cc(Cl)ccc3-n3ccnn3)=CC2=O)c2cc(ccn2)-c2c(cnn2C(F)F)NC1=O,half-life,[4],1.67 h
same,half-life,[26],0.5 h
same,clearance,[27],42 mL/min/kg
same,AUC,[28],0.068 µM·h
same,Vd,[29],1.2 L/kg
same,bioavailability,[30],7%
same,EC1.5,Plasma,0.45 µM
same,half-life,[24],> 2 h
same,fraction unbound,[25],0.249
same,Papp A→B,[31],< 1.5 ×10⁻⁶ cm/s
C[C@@H]1CCC[C@H](N2CCC(c3cc(Cl)ccc3-n3ccnc3)=CC2=O)c2cc(ccn2)-c2c(cnn2C)NC1=O,Ki,Coagulation factor XI,0.0027 µM
same,EC1.5,Plasma,0.6 µM
